Source: PubChem BioAssay (NCI)
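How tested: cells in 96-well plates exposed to compound for 48 hours at five concentrations. Definition used: TGI = concentration required for complete inhibition of growth.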

Assays:
Test in all cases: growth of human tumour cells (NCI), 48 h
786-0 renal = tested on: 786-0 renal
A498 renal = tested on: A498 renal
A549 NSCLC = tested on: A549 NSCLC
ACHN renal = tested on: ACHN renal
CAKI-1 renal = tested on: CAKI-1 renal
COLO 205 colon = tested on: COLO 205 colon
DLD-1 colon = tested on: DLD-1 colon
DMS 114 small cell lung = tested on: DMS 114 small cell lung
DMS 273 small cell lung = tested on: DMS 273 small cell lung
DU-145 prostate = tested on: DU-145 prostate
EKVX NSCLC = tested on: EKVX NSCLC
HCC-2998 colon = tested on: HCC-2998 colon
HCT-116 colon = tested on: HCT-116 colon
HCT-15 colon = tested on: HCT-15 colon
HOP-18 NSCLC = tested on: HOP-18 NSCLC
HOP-92 NSCLC = tested on: HOP-92 NSCLC
HS 578T breast = tested on: HS 578T breast
HT29 colon = tested on: HT29 colon
IGROV1 ovarian = tested on: IGROV1 ovarian
K-562 leukemia = tested on: K-562 leukemia
KM12 colon = tested on: KM12 colon
KM20L2 colon = tested on: KM20L2 colon
LOX IMVI melanoma = tested on: LOX IMVI melanoma
LXFL 529 NSCLC = tested on: LXFL 529 NSCLC
M14 melanoma = tested on: M14 melanoma
MALME-3M melanoma = tested on: MALME-3M melanoma
MCF7 breast = tested on: MCF7 breast
MDA-MB-231 breast = tested on: MDA-MB-231 breast
MDA-MB-435 = tested on: MDA-MB-435
NCI-H226 lung = tested on: NCI-H226 lung
NCI-H23 lung = tested on: NCI-H23 lung
NCI-H460 lung = tested on: NCI-H460 lung
NCI-H522 lung = tested on: NCI-H522 lung
NCI/ADR-RES ovarian = tested on: NCI/ADR-RES ovarian
OVCAR-3 ovarian = tested on: OVCAR-3 ovarian
OVCAR-4 ovarian = tested on: OVCAR-4 ovarian
OVCAR-5 ovarian = tested on: OVCAR-5 ovarian
OVCAR-8 ovarian = tested on: OVCAR-8 ovarian
PC-3 prostate = tested on: PC-3 prostate
RXF 393 renal = tested on: RXF 393 renal
SF-268 CNS = tested on: SF-268 CNS
SF-295 CNS = tested on: SF-295 CNS
SF-539 CNS = tested on: SF-539 CNS
SK-MEL-2 melanoma = tested on: SK-MEL-2 melanoma
SK-MEL-28 melanoma = tested on: SK-MEL-28 melanoma
SK-MEL-5 melanoma = tested on: SK-MEL-5 melanoma
SK-OV-3 ovarian = tested on: SK-OV-3 ovarian
SN12C renal = tested on: SN12C renal
SNB-19 CNS = tested on: SNB-19 CNS
SNB-75 CNS = tested on: SNB-75 CNS
SNB-78 CNS = tested on: SNB-78 CNS
SW-620 colon = tested on: SW-620 colon
T-47D breast = tested on: T-47D breast
TK-10 renal = tested on: TK-10 renal
U251 CNS = tested on: U251 CNS
UACC-257 melanoma = tested on: UACC-257 melanoma
UACC-62 melanoma = tested on: UACC-62 melanoma
UO-31 renal = tested on: UO-31 renal
BT-549 breast = tested on: BT-549 breast
CCRF-CEM leukemia = tested on: CCRF-CEM leukemia
HL-60(TB) leukemia = tested on: HL-60(TB) leukemia
HOP-62 NSCLC = tested on: HOP-62 NSCLC
MDA-N = tested on: MDA-N
MOLT-4 leukemia = tested on: MOLT-4 leukemia
RPMI-8226 leukemia = tested on: RPMI-8226 leukemia
SR leukemia = tested on: SR leukemia

CC(=O)OCc1cc2c(s1)C(=O)c1sccc1C2=O
TGI (786-0 renal): 1.84 µM
TGI (A498 renal): 3.23 µM
TGI (A549 NSCLC): 0.368 µM
TGI (ACHN renal): 0.246 µM
TGI (CAKI-1 renal): 3.24 µM
TGI (COLO 205 colon): 3.03 µM
TGI (DLD-1 colon): 342 nM
TGI (DMS 114 small cell lung): 283 nM
TGI (DMS 273 small cell lung): 299 nM
TGI (DU-145 prostate): 0.104 µM
TGI (EKVX NSCLC): 0.36 µM
TGI (HCC-2998 colon): 3.22 µM
TGI (HCT-116 colon): 3.38 µM
TGI (HCT-15 colon): 0.303 µM
TGI (HOP-18 NSCLC): 276 nM
TGI (HOP-92 NSCLC): 1680 nM
TGI (HS 578T breast): 0.422 µM
TGI (HT29 colon): 1.43 µM
TGI (IGROV1 ovarian): 2.79 µM
TGI (K-562 leukemia): > 100 µM
TGI (KM12 colon): 0.562 µM
TGI (KM20L2 colon): 5.49 µM
TGI (LOX IMVI melanoma): 0.0468 µM
TGI (LXFL 529 NSCLC): 1000 nM
TGI (M14 melanoma): < 0.0189 µM
TGI (MALME-3M melanoma): 659 nM
TGI (MCF7 breast): 0.416 µM
TGI (MDA-MB-231 breast): 0.692 µM
TGI (MDA-MB-435): 0.0322 µM
TGI (NCI-H226 lung): 1.24 µM
TGI (NCI-H23 lung): 0.0378 µM
TGI (NCI-H460 lung): 0.322 µM
TGI (NCI-H522 lung): 295 nM
TGI (NCI/ADR-RES ovarian): 0.413 µM
TGI (OVCAR-3 ovarian): 492 nM
TGI (OVCAR-4 ovarian): 0.334 µM
TGI (OVCAR-5 ovarian): 0.332 µM
TGI (OVCAR-8 ovarian): 0.576 µM
TGI (PC-3 prostate): 0.563 µM
TGI (RXF 393 renal): 310 nM
TGI (SF-268 CNS): 0.417 µM
TGI (SF-295 CNS): 0.162 µM
TGI (SF-539 CNS): 0.285 µM
TGI (SK-MEL-2 melanoma): 0.249 µM
TGI (SK-MEL-28 melanoma): 0.0721 µM
TGI (SK-MEL-5 melanoma): 56.9 nM
TGI (SK-OV-3 ovarian): 3.3 µM
TGI (SN12C renal): 0.261 µM
TGI (SNB-19 CNS): 0.317 µM
TGI (SNB-75 CNS): 0.12 µM
TGI (SNB-78 CNS): 28.3 µM
TGI (SW-620 colon): 0.268 µM
TGI (T-47D breast): 0.882 µM
TGI (TK-10 renal): 3.73 µM
TGI (U251 CNS): 0.706 µM
TGI (UACC-257 melanoma): 0.244 µM
TGI (UACC-62 melanoma): 0.305 µM
TGI (UO-31 renal): 0.391 µM

O=C(CCc1ccccc1)NCCc1ccc(O)c(O)c1
TGI (786-0 renal): > 82.2 µM
TGI (A498 renal): > 100 µM
TGI (A549 NSCLC): > 100 µM
TGI (ACHN renal): > 100 µM
TGI (BT-549 breast): > 49.8 µM
TGI (CAKI-1 renal): 29.4 µM
TGI (CCRF-CEM leukemia): 27.1 µM
TGI (COLO 205 colon): 58.5 µM
TGI (DU-145 prostate): > 100 µM
TGI (EKVX NSCLC): > 100 µM
TGI (HCC-2998 colon): > 100 µM
TGI (HCT-116 colon): > 66.7 µM
TGI (HCT-15 colon): > 100 µM
TGI (HL-60(TB) leukemia): 14.3 µM
TGI (HOP-62 NSCLC): 97.3 µM
TGI (HOP-92 NSCLC): > 78700 nM
TGI (HS 578T breast): > 100 µM
TGI (HT29 colon): > 69.3 µM
TGI (IGROV1 ovarian): > 100 µM
TGI (K-562 leukemia): 22.4 µM
TGI (KM12 colon): > 94.4 µM
TGI (LOX IMVI melanoma): > 100 µM
TGI (M14 melanoma): > 100 µM
TGI (MALME-3M melanoma): > 100000 nM
TGI (MCF7 breast): 93.9 µM
TGI (MDA-MB-231 breast): > 72.3 µM
TGI (MDA-MB-435): 29.4 µM
TGI (MDA-N): 28.5 µM
TGI (MOLT-4 leukemia): > 89.4 µM
TGI (NCI-H226 lung): > 100 µM
TGI (NCI-H23 lung): > 100 µM
TGI (NCI-H460 lung): > 100 µM
TGI (NCI-H522 lung): 44000 nM
TGI (NCI/ADR-RES ovarian): > 100 µM
TGI (OVCAR-3 ovarian): > 89000 nM
TGI (OVCAR-4 ovarian): 46.7 µM
TGI (OVCAR-5 ovarian): > 31.6 µM
TGI (OVCAR-8 ovarian): > 85.6 µM
TGI (PC-3 prostate): > 61.2 µM
TGI (RPMI-8226 leukemia): 59.4 µM
TGI (RXF 393 renal): > 100000 nM
TGI (SF-268 CNS): > 100 µM
TGI (SF-295 CNS): > 94.9 µM
TGI (SF-539 CNS): > 87.5 µM
TGI (SK-MEL-2 melanoma): 49.5 µM
TGI (SK-MEL-28 melanoma): > 100 µM
TGI (SK-MEL-5 melanoma): > 50600 nM
TGI (SK-OV-3 ovarian): > 100 µM
TGI (SN12C renal): > 69.5 µM
TGI (SNB-19 CNS): > 100 µM
TGI (SNB-75 CNS): > 100 µM
TGI (SR leukemia): > 77.3 µM
TGI (SW-620 colon): > 100 µM
TGI (T-47D breast): > 100 µM
TGI (TK-10 renal): > 100 µM
TGI (U251 CNS): > 100 µM
TGI (UACC-257 melanoma): > 100 µM
TGI (UACC-62 melanoma): > 100 µM
TGI (UO-31 renal): 49.2 µM

Cc1c(Cl)cc(C(C)(C)C)c(O)c1Cc1c(C)c(Cl)cc(C(C)(C)C)c1O
TGI (786-0 renal): 4.57 µM
TGI (A498 renal): 3.84 µM
TGI (A549 NSCLC): 5.88 µM
TGI (ACHN renal): 7.64 µM
TGI (BT-549 breast): 9.79 µM
TGI (CAKI-1 renal): 7.51 µM
TGI (CCRF-CEM leukemia): 1.54 µM
TGI (COLO 205 colon): 2.48 µM
TGI (DU-145 prostate): 11.8 µM
TGI (EKVX NSCLC): 6.41 µM
TGI (HCC-2998 colon): 3.33 µM
TGI (HCT-116 colon): 3.47 µM
TGI (HCT-15 colon): 13.6 µM
TGI (HL-60(TB) leukemia): 3.45 µM
TGI (HOP-62 NSCLC): 9.87 µM
TGI (HOP-92 NSCLC): 1180 nM
TGI (HS 578T breast): 3.61 µM
TGI (HT29 colon): 6.36 µM
TGI (IGROV1 ovarian): 5.53 µM
TGI (K-562 leukemia): 5.1 µM
TGI (KM12 colon): 5.76 µM
TGI (LOX IMVI melanoma): 3.19 µM
TGI (M14 melanoma): 7.85 µM
TGI (MALME-3M melanoma): 1940 nM
TGI (MCF7 breast): 7.28 µM
TGI (MDA-MB-231 breast): 3.49 µM
TGI (MDA-MB-435): 5.62 µM
TGI (MDA-N): 8.71 µM
TGI (MOLT-4 leukemia): 3.34 µM
TGI (NCI-H226 lung): 6.03 µM
TGI (NCI-H23 lung): 5.13 µM
TGI (NCI-H460 lung): 5.03 µM
TGI (NCI-H522 lung): 1180 nM
TGI (NCI/ADR-RES ovarian): 9.24 µM
TGI (OVCAR-3 ovarian): 2220 nM
TGI (OVCAR-4 ovarian): 10.3 µM
TGI (OVCAR-5 ovarian): 14 µM
TGI (OVCAR-8 ovarian): 5.51 µM
TGI (PC-3 prostate): 9.93 µM
TGI (RPMI-8226 leukemia): 0.707 µM
TGI (RXF 393 renal): 2440 nM
TGI (SF-268 CNS): 6.89 µM
TGI (SF-295 CNS): 7.54 µM
TGI (SF-539 CNS): 4.24 µM
TGI (SK-MEL-2 melanoma): 3.9 µM
TGI (SK-MEL-28 melanoma): 12.3 µM
TGI (SK-MEL-5 melanoma): 2290 nM
TGI (SK-OV-3 ovarian): 10 µM
TGI (SN12C renal): 9.02 µM
TGI (SNB-19 CNS): 12.5 µM
TGI (SNB-75 CNS): 5.78 µM
TGI (SR leukemia): 5.58 µM
TGI (SW-620 colon): 6.45 µM
TGI (T-47D breast): 13.1 µM
TGI (TK-10 renal): 10 µM
TGI (U251 CNS): 7.97 µM
TGI (UACC-257 melanoma): 6.29 µM
TGI (UACC-62 melanoma): 7 µM
TGI (UO-31 renal): 4.46 µM
